Results from PMC12469672, “Effects on Oral Squamous Carcinoma Cell Lines and Their Mechanisms of Pyrazole N-Aryl Sulfonate: A Novel Class of Selective Cyclooxygenase-2 Inhibitors” (International Journal of Molecular Sciences, 2025).
“Also recorded” adds a separate entry of the source.

Columns and labels:
[1] = tested on: HepG2; conditions: previous experiments, preliminary screening; cited from earlier work
[2] = tested on: MMP2 mRNA in SAS cells; test: RT-qPCR MMP2 mRNA, SAS; type: cell-based; conditions: vs control
Experimental: (§1) Equal amounts of RNA were reverse transcribed into cDNA using the Reverse Transcription Kit (AG11705, Accurate Biology, Guangzhou, China) following the manufacturer’s instructions. Quantitative PCR was performed on a QIAGEN Rotor-GeneQ system (9001862, QIAGEN, Hilden, Germany) with SYBR Green Pro Taq HS Premix II (AG11702, Accurate Biology, China).
(§2) The PCR protocol consisted of initial denaturation at 95 °C for 30 s, followed by 40 cycles of 95 °C for 5 s and 60 °C for 30 s. All reactions were performed in triplicate, with melting curve analysis confirming amplification specificity. The expression of the target genes was normalized to GAPDH, and fold changes were calculated in the manner of the 2^−ΔΔCT .

[3] = tested on: SAS cells; test: Annexin V-FITC/PI flow cytometry apoptosis, SAS; type: cell-based; conditions: 24 h, vs control
Experimental: (§3) After 24 h drug treatment at the predefined working concentrations, CAL-27 and SAS cells were trypsinized, centrifuged (200× g, 5 min, RT), and washed twice with 1 mL ice-cold PBS. Cell aliquots ((5–10) × 10^4 cells) were resuspended in 195 μL Annexin V-FITC binding buffer, followed by sequential addition of 5 μL Annexin V-FITC and 10 μL propidium iodide (PI) (BMS500FI-100, Thermo Fisher Scientific, Wien, Austria) with gentle mixing. After 10–20 min of incubation in darkness (20–25 °C) with intermittent resuspension (2–3 times), samples were placed on ice and analyzed within 1 h using a flow cytometer (CytExpert software [Version 2.4.0.28, Beckman Coulter, Brea, CA, USA]). Triplicate independent experiments were performed for statistical analysis.

[4] = tested on: BCL2 mRNA in CAL-27 cells; test: RT-qPCR BCL2 mRNA, CAL-27; type: cell-based; conditions: CAL-27, 24 h, vs control (NC)
Experimental: as §1, §2

[5] = tested on: BCL2 protein in CAL-27 cells; test: Western blot BCL2, CAL-27; type: cell-based; conditions: CAL-27, vs CXB
Experimental: Cell lysates were centrifuged at 12,000× g for 10 min at 4 °C and then quantified using the BCA Protein Assay Kit (CW0014S, Cwbio, Taizhou, China). The lysate was denatured with sodium dodecyl sulfate–polyacrylamide gel electrophoresis (SDS-PAGE) sample loading buffer (P1040, Solarbio, Beijing, China), followed by SDS-PAGE and electrotransfer to polyvinylidene difluoride membranes (10600023, Cytiva, Marlborough, MA, USA). The membranes were incubated overnight at 4 °C with GAPDH (1:5000, 1049-1-AP, Proteintech Group, Wuhan, China), anti-PTGS2 (1:2000, 12375-1-AP, Proteintech Group, China), anti-BAX (1:1000, ab777, Abcam, Cambridge, UK), anti-BCL2 (1:5000, ET1702-53, HUABIO, Hangzhou, China), anti-BCL-XL (1:8000, 10783-1-AP, Proteintech Group, China), anti-MMP2 (1:3000, 66366-1-Ig, Proteintech Group, China), anti-MMP9 (1:3000, 10372-2-AP, Proteintech Group, China), anti-JAK1 (1:3000, 66466-1-Ig, Proteintech Group, China), anti-phospho-JAK1 (1:400, GB115604-100, Servicebio, China), anti-STAT3 (1:2000, 10253-2-AP, Proteintech Group, China), and anti-phospho-STAT3 (1:1000, 39595, Activemotif, Shanghai, China) at the appropriate dilution and then incubated with the secondary antibody at room temperature for 1.5 h. The bands were visualized by employing an ECL detection reagent (36208ES76, Yeasen, Shanghai, China) and independently quantified twice using ImageJ (v1.8.0.322) and ChemiScope Analysis (Version 2.1.6.0) software. Subsequently, the obtained data were normalized to GAPDH.

[6] = tested on: CAL-27 cells; test: Hoechst 33342 staining, CAL-27; type: cell-based; conditions: CAL-27, 24 h, working concentrations, vs NC
Experimental: (§4) After 24 h drug treatment at the predefined working concentrations, CAL-27 and SAS cells were dyed with 300 μL Hoechst 33342 staining (C1022, Beyotime, China) in the dark at 37 °C for 10 min. Then, the residual Hoechst 33342 staining was washed 3 times with 1 × phosphate-buffered saline (PBS, G4250-500ML, Servicebio, China). The images were then immediately examined under an inverted fluorescence microscope (CX23, Olympus, Japan).

[7] = tested on: SAS cells; test: Hoechst 33342 staining, SAS; type: cell-based; conditions: 24 h, working concentrations, vs NC
Experimental: as §4

[8] = tested on: COX-2 mRNA in SAS cells; test: RT-qPCR COX-2 mRNA, SAS; type: cell-based; conditions: working concentrations, 24 h, vs control
Experimental: as §1, §2

[9] = tested on: CAL-27 cells; test: Transwell migration assay, CAL-27; type: cell-based; conditions: CAL-27, 24 h treatment at working concentrations, vs control
Experimental: Following 24 h drug treatment at the predefined working concentrations, CAL-27 and SAS cells (5 × 10^5 cells/mL in serum-free medium) were seeded in Transwell upper chambers (200 μL/well, 1 × 10^5 cells) with 700 μL complete medium containing 10% FBS in lower chambers. After 36 h of incubation (37 °C, 5% CO2), the cells from the upper surface of the membrane were wiped off using a cotton swab, whereupon migrated cells were fixed (4% paraformaldehyde [P0099-100 mL, Beyotime, Haimen, China], 4 °C, 4 h), stained (0.1% crystal violet [C0121-100 mL, Beyotime, China], 30 min), and quantified by counting five random fields under a microscope (CX23, Olympus, Tokyo, Japan) using ImageJ (v1.8.0.322), with triplicate wells per condition.

[10] = tested on: CYP19A1 mRNA in CAL-27 cells; test: RT-qPCR CYP19A1 mRNA, CAL-27; type: cell-based; conditions: CAL-27, vs control
Experimental: as §1, §2

[11] = tested on: CAL-27 cells; test: Annexin V-FITC/PI flow cytometry apoptosis, CAL-27; type: cell-based; conditions: CAL-27, 24 h, vs control
Experimental: as §3

| Structure (SMILES) | antiproliferative effect on HepG2 [1] | apoptosis of HepG2 [1] | migration of HepG2 [1] | MMP2 mRNA expression [2] | total apoptotic cell population (early and late apoptosis) [3] | BCL2 mRNA level [4] | BCL2 protein suppression (Western blot) [5] | apoptotic cells (Hoechst 33342, fluorescence microscopy) [6] | apoptotic cells (Hoechst 33342, fluorescence microscopy) [7] | COX-2 mRNA level [8] | migratory capacity (Transwell) [9] | CYP19A1 mRNA expression [10] | total apoptotic cell population (early and late apoptosis) [11] |
| --- | --- | --- | --- | --- | --- | --- | --- | --- | --- | --- | --- | --- | --- |
| Cc1ccc(-c2cc(C)n(S(=O)(=O)Oc3ccc(I)cc3)n2)cc1 [Compound 4b] | concentration-dependent antiproliferative effects | induction of apoptosis | suppression of migration | markedly suppressed | significantly higher | significantly downregulated | stronger suppression of BCL2 than CXB | significant increase | significant increase | significantly downregulated | significantly reduced | significantly downregulated | significantly higher; also recorded: strongest pro-apoptotic effect |
| Cc1ccc(-c2cc(C)n(S(=O)(=O)Oc3ccccc3Cl)n2)cc1 [Compound 4d] | concentration-dependent antiproliferative effects | induction of apoptosis | suppression of migration | markedly suppressed | significantly higher | significantly downregulated | stronger suppression of BCL2 than CXB | significant increase | significant increase | marked upregulation | significantly reduced | significantly downregulated | significantly higher |
| Cc1cc(-c2ccco2)nn1S(=O)(=O)Oc1ccccc1Cl [Compound 5f] | concentration-dependent antiproliferative effects | induction of apoptosis | suppression of migration | no statistically significant suppression | significantly higher; also recorded: optimal efficacy | upregulated | stronger suppression of BCL2 than CXB | significant increase | significant increase | significantly downregulated | significantly reduced | slightly influenced the expression, although not significantly | significantly higher |
